Assay results as given in patent publication US20200383331A1, “COMPOSITIONS AND METHODS FOR LARGE-SCALE IN VITRO PLANT BIOCULTURE” (BOOSHOOT, LLC, priority 2017, published 2020).

Test system: Pistacia atlantica x P. intergerrina plants
Assay: In vitro initiation and multiplication of pistachio on solid medium
Type: cell-based
Method: Fully developed pistachio plants were cut into single-node explants, shoot tips, basal (bottom) parts of plants with multiple buds, and cultured on different agar-solidified culture media under standard tissue culture conditions (16 h light photoperiod, cool white fluorescent lights at 80-100 μmol/m^2/s light intensity, 24° C.).
Culture vessels (baby food jars) with ventilated lids are used in all experiments: 1-3 explants per 1 vessel, 12 vessels per each experimental medium, 40 ml of medium in each vessel. The explants are subcultured every 30 days, photographed every week, and observed daily.
The culture media differed in composition of major macronutrients (e.g., MS vs. WPM vs. DKW), individual elements (calcium, magnesium, phosphorus, zinc copper, boron, etc.), as well as in type and concentration of plant growth regulators (PGRs).
The compositions of these media are presented in FIG. 38, and their key advantages are based on data presented below.
Because the type and dosage of PGRs are usually the key factors controlling the morphogenetic response of plant cells in vitro, the main work was focused on testing various concentrations of cytokinins or cytokinin-like compounds (TDZ, 2iP, BA, meta-Topolin, ZR), alone or in combination with auxins (NAA, IAA, IBA), to induce organogenesis and high frequency multiplication in Pistacia atlantica x P. intergerrina. In the absence of PGRs (i.e., on hormone-free media), the plant growth was very poor and the culture gradually died within several weeks. In contrast, the culture media with 1-3 mg/l meta-Topolin, alone or in combination with 0.02-1 mg/l NAA or IBA, provided the highest rate of shoot organogenesis with the fastest response: each explant formed multiple meristematic buds, and the first axillary shoots appeared as early as 3 days after the explants were placed on the media. […] The multiplication rate of pistachio plants cultured on BOO3, BOO6, BOO4, and BOO7 media was 2-7 times every 30 days. […]

[1] = 1-3 mg/l meta-Topolin, alone or in combination with 0.02-1 mg/l NAA or IBA

| Compound | shoot development from dormant buds of plant bases (2 mg/l of GA3 added into the media) | first axillary shoots appeared after the explants were placed on the media [1] [days] | rate of shoot organogenesis [1] |
| --- | --- | --- | --- |
| C=C1C[C@]23C[C@@]1(O)CC[C@H]2[C@@]12C=C[C@H](O)[C@@](C)(C(=O)O1)[C@H]2[C@@H]3C(=O)O [GA3, gibberellic acid] | induced shoot development | – | – |
| Oc1cccc(CNc2ncnc3[nH]cnc23)c1 [meta-Topolin, 6-(3-hydroxybenzylamino)-purine] | – | ≥ 3 | highest |
